Read-outs that look alike come from different tables or passages of the source.

As a reminder, the IC50 is the concentration needed to halve the response being measured.

In assay [1] the test system is AGS cells (K-Ras G12D). The assay can be described thus: Phospho-ERK1/2(THR202/TYR204) HTRF assay. Format: cell-based. Conditions: Homo sapiens, 2 hours incubation, read-out: p-ERK, IC50 AGS. As to the method:
(§1) p-ERK (MAPK pathway) inhibition activity of each of compounds in a variety of K-Ras mutant and K-Ras WT cell lines indicated in Table 12 was evaluated. MKN-1 with K-Ras WT amplification is also a K-Ras dependent cell line.
(§2) Each of cells in culture medium was seeded in 96-well plates at density indicated in Table 16 and then put in a cell incubator to incubate overnight. The next day, the culture medium was removed and the compound diluted in assay medium was added in each well. After 2 hours incubation in a cell incubator, the assay medium in 96-well plates was removed, then 50 μL of 1× blocking reagent-supplemented lysis buffer (Cisbio) was added and the plates were incubated at 25° C. for 45 min with shaking. 10 μL of cell lysates from the 96-well plates were transferred to a 384-well plate (Greiner) containing […] HTRF® pre-mixed antibodies (Cisbio 64AERPEH). The plate was incubated 4 hours at 25° C. and then read HTRF signals on Tecan Spark multimode microplate reader. The data were analyzed using a 4-parameter logistic model to calculate IC50 values.
(In general: In TR-FRET formats the signal depends on donor and acceptor labels being close together.)

Assay [2] relates to SW620 cells (K-Ras G12V). The assay can be described thus: Phospho-ERK1/2(THR202/TYR204) HTRF assay. Format: cell-based. Conditions: Homo sapiens, SW-620, 2 hours incubation, read-out: p-ERK, IC50 SW620. As to the method:
as §1, §2

In assay [3] the test system is AsPC-1 cells (K-Ras G12D). The assay can be described thus: 2D cell growth inhibition assay (CellTiter-Glo). Format: cell-based. The conditions noted are these: Homo sapiens, ASPC1, AsPC-1 (G12D), 6 days, absolute IC50. As to the method: (§3) The cell growth inhibition activity of each of compounds was tested by performing cell growth inhibition assays on a variety of K-Ras mutant and K-Ras WT cell lines indicated in Table 14.
(§4) Each of cells in culture medium was plated in TC-treated 96-well plates at a density indicated in Table 14 and incubated in a cell incubator overnight. The next day, each of compounds was diluted in culture medium and added to the plates. After 6 days incubation in cell incubator, the cell viability was detected by CellTiter-Glo® Cell Viability Assay kit (Promega).
(In general: Cellular ATP, detected with luciferase, serves as a proxy for viable cell number.)

In assay [4] the test system is AGS cells (K-Ras G12D). The assay can be described thus: 2D cell growth inhibition assay (CellTiter-Glo). The assay is classed as cell-based. Conditions: Homo sapiens, 6 days, absolute IC50. As to the method: as §3, §4
Assay [5] has as its system SW620 cells (K-Ras G12V). The assay can be described thus: 2D cell growth inhibition assay (CellTiter-Glo). The assay is classed as cell-based. The conditions noted are these: Homo sapiens, SW-620, 6 days, absolute IC50. The method, then:
as §3, §4

The target in assay [6] is T1, K-Ras G12V (Homo sapiens, UniProt P01116, G12V). The assay can be described thus: biochemical.
The target in assay [7] is T2, K-Ras G12D (Homo sapiens, UniProt P01116, G12D). The assay can be described thus: biochemical.
Assay [8] deals with T2, K-Ras G12D. The assay can be described thus: biochemical. This is another data set of the same source.
The target of assay [9] is T1, K-Ras G12V. The assay can be described thus: biochemical. The source holds these as a separate data set.

T2 sequence (P01116 1-169 isoform P01116-2 G12D): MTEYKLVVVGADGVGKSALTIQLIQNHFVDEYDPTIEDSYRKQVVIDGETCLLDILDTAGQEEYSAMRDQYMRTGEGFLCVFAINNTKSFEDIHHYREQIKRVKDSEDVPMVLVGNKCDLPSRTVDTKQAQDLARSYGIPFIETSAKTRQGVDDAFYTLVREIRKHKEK
T1 sequence (P01116 1-169 isoform P01116-2 G12V): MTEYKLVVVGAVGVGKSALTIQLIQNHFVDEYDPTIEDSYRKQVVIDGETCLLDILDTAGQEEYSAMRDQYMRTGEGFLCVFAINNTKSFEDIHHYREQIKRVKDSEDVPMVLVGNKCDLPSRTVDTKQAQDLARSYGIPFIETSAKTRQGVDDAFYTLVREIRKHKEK

Consider `C#Cc1c(F)ccc2cc(O)cc(-c3cc4c5c(nc(OC[C@@]67CCCN6C[C@H](F)C7)nc5c3F)N3CCOCCC3CO4)c12` (some centres unmarked) [Compound 1], for which the IC50 in assay [1] came to 0.0162 µM; in assay [2] it was 0.0382 µM; in assay [3] it was 0.987 µM; in assay [4], 0.326 µM; in assay [5] it was 0.1 µM.
With `C#Cc1c(F)ccc2cc(O)cc(-c3nc4c5c(nc(OCC67CCCN6CC(F)C7)nc5c3F)N3CCOCCC3CO4)c12` (centres unmarked) [Compound 2], the IC50 worked out at 0.00233 µM in assay [1]; 0.0052 µM in assay [2]; 0.134 µM in assay [3]; 0.00507 µM in assay [4]; 0.0131 µM in assay [5].
On to `C#Cc1c(F)ccc2cc(O)cc(-c3nc4c5c(nc(OC[C@@]67CCCN6C[C@H](F)C7)nc5c3F)N3CCCOCC3CO4)c12` (some centres unmarked) [Compound 3], for which the IC50 in [1] was 0.00202 µM; in assay [2], 0.00461 µM; in assay [3] it was 0.0196 µM; in assay [4], 0.00173 µM; in assay [5], 0.00332 µM.
Consider `CCc1c(F)ccc2cc(O)cc(-c3cc4c5c(nc(OC[C@@]67CCCN6C[C@H](F)C7)nc5c3F)N3CCOCCC3CO4)c12` (some centres unmarked) [Compound 4], for which the IC50 is above 1 µM in assay [6], above 1 µM in assay [7], 0.0327 µM in assay [8] and 0.0147 µM in assay [9].
Regarding `C#Cc1c(F)ccc2cc(O)cc(-c3nc4c5c(nc(OC[C@@]67CCCN6C[C@H](F)C7)nc5c3F)N3CCCOC[C@H]3CO4)c12` [Compound 5], the IC50 in assay [1] is 0.000525 µM; in assay [2] it was 0.00103 µM; in [4], 0.000466 µM; in assay [5] it was 0.000819 µM.
For `C#Cc1c(F)ccc2cc(O)cc(-c3nc4c5c(nc(OC[C@@]67CCCN6C[C@H](F)C7)nc5c3F)N3CCCOC[C@@H]3CO4)c12` [Compound 6], the 50% inhibitory concentration (IC50) in assay [1] was 0.0015 µM; in assay [2], 0.01 µM; in assay [3], 0.0801 µM; in [4], 0.00757 µM; in [5] it was 0.00561 µM.
On to `C#Cc1c(F)ccc2cc(O)cc(-c3nc4c5c(nc(OC[C@@]67CCCN6C[C@H](F)C7)nc5c3F)N3CCCOC[C@H]3CN4C)c12` [Compound 9], for which the IC50 in assay [1] was determined as 0.00658 µM; in assay [2], 0.0186 µM; in [3] it was 0.0644 µM; in [4] it was 0.0068 µM; in assay [5], 0.00767 µM.
Taken in the same sequence, the figures for `C#Cc1c(F)ccc2cc(O)cc(-c3nc4c5c(nc(OC[C@@]67CCCN6C[C@H](F)C7)nc5c3F)N3CCOCC3CO4)c12` (some centres unmarked) [Compound 11] were 0.0263 µM, 0.0168 µM, 0.346 µM, 0.0318 µM and 0.025 µM.
For `C#Cc1c(F)ccc2cc(O)cc(-c3nc4c5c(nc(OC[C@@]67CCCN6C[C@H](F)C7)nc5c3F)N3CCOCC3CCO4)c12` (some centres unmarked) [Compound 12] the same measures were 0.048 µM, 0.128 µM, 0.81 µM, 0.0834 µM and 0.0912 µM.
Take `CCc1c(F)ccc2cc(O)cc(-c3nc4c5c(nc(OC[C@@]67CCCN6C[C@H](F)C7)nc5c3F)N3CCOCC3CO4)c12` (some centres unmarked) [Compound 14]: the IC50 in assay [1] was 0.0394 µM; in assay [2], 0.0423 µM; in [3] it was 0.702 µM; in assay [4], 0.105 µM; in assay [5] it was 0.0239 µM.
Take `C#Cc1c(F)ccc2cc(O)cc(-c3nc4c5c(nc(OC[C@@]67CCCN6C[C@H](F)C7)nc5c3F)N3C5COCCC3(CO4)C5)c12` (some centres unmarked) [Compound 16]: the IC50 in assay [6] is above 1 µM; in assay [7], above 1 µM; in assay [8], 0.0574 µM; in assay [9], 0.0435 µM.
As to `C#Cc1c(F)ccc2cc(O)cc(-c3nc4c5c(nc(OC[C@@]67CCCN6C[C@H](F)C7)nc5c3F)N3CCCCC3CO4)c12` (some centres unmarked) [Compound 19], the IC50 was found to be 0.00232 µM in assay [1] and 0.00513 µM in assay [2].
With `C#Cc1c(F)ccc2cc(O)cc(-c3nc4c5c(nc(OC[C@@]67CCCN6C[C@H](F)C7)nc5c3F)N3CCCCC[C@H]3CO4)c12` [Compound 20], the IC50 in assay [1] was found to be 0.000691 µM; in assay [2], 0.00201 µM; in [3], 0.0102 µM; in assay [4], 0.00123 µM; in [5], 0.00149 µM.
With `C#Cc1c(F)ccc2cc(O)cc(-c3nc4c5c(nc(OC[C@@]67CCCN6C[C@H](F)C7)nc5c3F)N3CCCC3CO4)c12` (some centres unmarked) [Compound 21], the 50% inhibitory concentration (IC50) in [1] was 0.0197 µM; in assay [2], 0.0606 µM; in assay [3] it was 0.547 µM; in assay [4], 0.099 µM; in assay [5], 0.0351 µM.
In the case of `C#Cc1c(F)ccc2cc(O)cc(-c3nc4c5c(nc(OC[C@@]67CCCN6C[C@H](F)C7)nc5c3F)N3CCCCCC3CO4)c12` (some centres unmarked) [Compound 22], the IC50 in assay [1] is 0.00138 µM; in assay [2], 0.00305 µM; in [3], 0.0156 µM; in assay [4], 0.00259 µM; in assay [5], 0.00132 µM.
In the case of `C#Cc1c(F)ccc2cc(O)cc(-c3nc4c5c(nc(OC[C@@]67CCCN6C[C@H](F)C7)nc5c3F)N3CCCCC3CCO4)c12` (some centres unmarked) [Compound 23], the IC50 in assay [1] was found to be 0.023 µM; in assay [2], 0.0501 µM.

The record behind these values is patent US20250034166A1, “POLYCYCLIC FUSED RING DERIVATIVES AND USE THEREOF” (Jacobio Pharmaceuticals Co., Ltd., priority 2021, published 2025).
